As a reminder, the Ki is the dissociation constant of the complex between target and ligand, obtained from inhibition or displacement. By EC50 is commonly meant the concentration at which the effect is half-maximal. Read a low EC50 as an effect from little substance.

Experiment [1] addresses T1, human full-length glucocorticoid receptor (Homo sapiens, UniProt P04150).
T1 sequence (P04150 1-777): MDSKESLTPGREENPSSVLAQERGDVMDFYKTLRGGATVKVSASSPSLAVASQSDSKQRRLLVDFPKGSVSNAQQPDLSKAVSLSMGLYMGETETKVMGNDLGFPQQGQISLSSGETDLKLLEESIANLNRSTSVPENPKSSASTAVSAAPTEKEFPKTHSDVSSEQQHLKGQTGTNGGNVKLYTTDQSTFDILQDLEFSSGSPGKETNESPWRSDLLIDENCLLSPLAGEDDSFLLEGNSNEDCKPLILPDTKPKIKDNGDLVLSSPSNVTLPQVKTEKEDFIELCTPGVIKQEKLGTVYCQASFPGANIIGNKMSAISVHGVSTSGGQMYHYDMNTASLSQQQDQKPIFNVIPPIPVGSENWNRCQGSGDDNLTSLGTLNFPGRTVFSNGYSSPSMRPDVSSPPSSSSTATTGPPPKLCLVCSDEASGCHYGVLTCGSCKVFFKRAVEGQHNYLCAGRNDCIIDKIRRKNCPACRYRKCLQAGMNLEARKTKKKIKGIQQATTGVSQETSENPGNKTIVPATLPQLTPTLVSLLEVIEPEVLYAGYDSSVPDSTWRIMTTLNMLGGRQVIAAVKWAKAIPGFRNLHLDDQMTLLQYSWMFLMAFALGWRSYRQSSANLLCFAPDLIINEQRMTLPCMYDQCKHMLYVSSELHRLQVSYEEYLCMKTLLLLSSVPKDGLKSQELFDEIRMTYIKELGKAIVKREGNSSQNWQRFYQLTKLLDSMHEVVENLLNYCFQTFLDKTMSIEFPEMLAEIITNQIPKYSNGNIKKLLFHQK
Put plainly: Glucocorticoid Receptor Binding Assay (I), fluorescence polarization, Fluormone GS Red. More on the design: purified human recombinant full-length glucocorticoid receptor; purchased Invitrogen Part #2893. The conditions noted are these: GR Binding Assay (I); read-out: GR (Ki, nM) (GR Binding Assay (I)). The protocol: Glucocorticoid Receptor Binding Assay (I)^a
Briefly, purified human recombinant full-length glucocorticoid receptor (2 nM) was mixed with fluorescently labeled glucocorticoid (1 nM Fluormone GS Red) in the presence or absence of test compound. After two hour incubation at room temperature in the dark, the fluorescence polarization (FP) of the samples was measured. […] Test compounds were analyzed in the concentration range from 8.5E-05 μM to 5 μM.

Experiment [2] relates to AP-1 induced transcriptional activity. Nature of the experiment: Cellular Transrepressional Assay (AP-1 luciferase reporter, PMA-activated A549 cells). The format is cell-based. The following applies: for Emax: A549, 7 h, read-out: AP-1 Max % inh (Cellular Transrepression Assay); for Emax / AP-1 Max % inh (Cellular Transrepression Assay): maximum inhibition. An outline of the steps:
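Compounds tested from 0.1 nM to 40 μM during a 7 h PMA (10 ng/ml) stimulation of A549 cells stably transfected with 7× AP-1 sites driving luciferase. Repression expressed as % reduction of PMA-induced luminescence; EC50 by curve fitting.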
For orientation: Reporter assays use an easily measured gene product as a stand-in for the process of interest.

Setting [3] is: Homo sapiens, Cellular Transrepression Assay.
[4] abbreviates: Homo sapiens, A549, Cellular Transrepression Assay.

In the case of `CN(CCc1ccccn1)C(=O)c1ccc(-c2ccc3c(n2)Oc2ccccc2[C@@H]3C(C)(C)C(=O)Nc2nncs2)cc1` [Example 299], in experiment [1], the Ki was 13.3 nM. The same measure, in the same setting: for `CCCCCCc1ccc2c(n1)Oc1ccccc1[C@@H]2C(C)(C)C(=O)Nc1nncs1` [Example 437] the value was 11.1 nM; for `CN(C)C(=O)c1ccc(-c2ccc3c(n2)Oc2ccccc2[C@H]3C(C)(C)C(=O)Nc2nncs2)cc1` [Example 168], 486 nM; for `CN(CCOC(C)(C)C)C(=O)c1ccc(-c2ccc3c(n2)Oc2ccccc2[C@@H]3C(C)(C)C(=O)Nc2nncs2)cc1` [Example 302], 126 nM. Still for that read-out and setting: for `CC(C)(C(=O)Nc1nncs1)C1c2ccccc2Oc2cc(C(N)=O)ccc21` (centres unmarked) [Example 113] the value was 62.6 nM. Same read-out and setting: the result for `CC(C)(C)NC(=O)c1ccc(-c2ccc3c(n2)Oc2ccccc2[C@@H]3C(C)(C)C(=O)Nc2nncs2)cc1` [Example 352] reads 42.1 nM. Consider `CC(C)(C(=O)Nc1nnc(C(F)(F)F)s1)[C@H]1c2ccccc2Oc2nc(-c3ccc(C(=O)N4CCCC4)c(F)c3)ccc21` [Example 412], for which the inhibition constant (Ki) in experiment [1] was 22.3 nM.

As for `COc1ccc(-c2ccc3c(n2)Oc2ccccc2[C@@H]3C(C)(C)C(=O)Nc2nncs2)cn1` [Example 218], the Ki in experiment [1] was found to be 1.24 nM. With `CC(C)(C(=O)Nc1nncs1)[C@H]1c2ccccc2Oc2nc(-c3ccc(C(=O)N4CCC(Cc5ccccc5)CC4)cc3)ccc21` [Example 278], the Ki in experiment [1] worked out at 30.5 nM.

As to `CC(C)(C(=O)Nc1nncs1)C1c2cccnc2Oc2c(F)cccc21` (centres unmarked) [Example 72], in experiment [1], the Ki was more than 1150 nM. Take `CC(C)(C(=O)Nc1nncs1)C1c2ccccc2Oc2cc(NC(=O)NC3CC3)ccc21` (centres unmarked) [Example 124]: the Ki in experiment [1] was determined as 65.1 nM.

For `CN(C)C(=O)c1ccc(-c2ccc3c(n2)Oc2ccccc2C3C2(C(=O)Nc3nncs3)CC2)cc1` (centres unmarked) [Example 489], the Ki in experiment [1] was 144 nM. As to `Cc1ccc(-c2csc(NC(=O)C(C)(C)C3c4ccccc4-c4ccccc43)n2)c2ccccc12` [Example 20], in experiment [2] (setting [3]), the Emax worked out at 46.9%. The compound also returned an EC50 in experiment [2] (setting [4]) of 473 nM. In the case of `Cc1csc(NC(=O)C(C)(C)C2c3ccccc3Oc3nc(-c4ccc(C(=O)N(C)C)cc4)ccc32)n1` (centres unmarked) [Example 363], in experiment [2] (Cellular Transrepression Assay), the response was half-maximal at 247 nM (EC50) and the “AP-1 Max % inh (Cellular Transrepression Assay)” value (from here on “AP-1 Max % inh”) came to 47.74%. With `Cc1nnc(NC(=O)C(C)(C)[C@H]2c3ccccc3Oc3nc(-c4ccc(OC(C)C)cc4)ccc32)s1` [Example 461], the Emax in experiment [2] (setting [3]) turned out to be 50.8%. Moreover, the midpoint of the response in experiment [2] (setting [4]), the EC50, lay at 53.4 nM.

As to `Cc1nnc(NC(=O)C(C)(C)[C@H]2c3ccccc3Oc3nc(-c4ccc(C(=O)N5CCC(F)(F)C5)c(F)c4)ccc32)s1` [Example 477], the Emax in experiment [2] (setting [3]) amounted to 44.8%. The same compound registered an EC50 in experiment [2] (setting [4]) of 39.8 nM. In the same order, the values of `CC(C)(C(=O)Nc1nncs1)[C@H]1c2ccccc2Oc2nc(-c3ccc(C(=O)N4CCC(F)(F)C4)cc3)ccc21` [Example 314] are 69.8% and 18 nM.

As for `CC(C)(C(=O)Nc1nncs1)C1c2ccccc2Oc2nc(-c3ccc(OC(F)(F)F)cc3)ccc21` (centres unmarked) [Example 173], in experiment [2] (Cellular Transrepression Assay), the EC50 turned out to be 82.5 nM and the “AP-1 Max % inh” value turned out to be 44.82%. Turning to `CC(C)(C(=O)Nc1nncs1)[C@H]1c2ccccc2Oc2nc(N3CCC4(CC3)OCCO4)ccc21` [Example 139], the Emax in experiment [2] (setting [3]) was 26.8%. In addition, it took 95.5 nM to reach a half-maximal effect in experiment [2] (setting [4]) (EC50). Consider `CN(C)C(=O)c1ccc(-c2ccc3c(n2)Oc2c(F)cccc2C3C(C)(C)C(=O)Nc2nncs2)cc1F` (racemic) [Example 165], for which, in experiment [2] (Cellular Transrepression Assay), the EC50 is 25.6 nM and the “AP-1 Max % inh” value was 56.92%. The matching figures for `CCCN(C)C(=O)c1ccc(-c2ccc3c(n2)Oc2ccccc2[C@@H]3C(C)(C)C(=O)Nc2nncs2)cc1F` [Example 343]: 18.4 nM and 29.68%. For `CC(C)Oc1cnc(-c2ccc3c(c2)Oc2ccccc2[C@@H]3C(C)(C)C(=O)Nc2nncs2)nc1` [Example 107], the Emax in experiment [2] (setting [3]) turned out to be 22.8%. The compound also had an EC50 in experiment [2] (setting [4]) of 833 nM. The matching figures for `CCNC(=O)Oc1ccc2c(c1)Oc1ccccc1C2C(C)(C)C(=O)Nc1nncs1` (centres unmarked) [Example 387]: 52.5% and 82 nM. In the same order, the values of `CN(C)C(=O)c1ccc(-c2ccc3c(n2)Oc2ccccc2[C@@H]3C(C)(C)C(=O)Nc2nnc(C3CC3)s2)cc1` [Example 448] are 56.6% and 178 nM. With `CC(C)(C(=O)Nc1nc(-c2ccc(F)c3ccccc23)cs1)C1c2ccccc2Cc2ccccc21` [Example 17], in experiment [2] (setting [3]), the Emax came to 68%. For the same compound, it took 335 nM to reach a half-maximal effect in experiment [2] (setting [4]) (EC50). The matching figures for `COc1ccc(Cc2csc(NC(=O)C(C)(C)C3c4ccccc4Oc4nc(OC)ccc43)n2)cc1` (centres unmarked) [Example 77]: 73.9% and 91.6 nM.

As for `CNC(=O)c1nnc(NC(=O)C(C)(C)[C@H]2c3ccccc3Oc3nc(-c4ccc(C(=O)N5CCCC5)c(F)c4)ccc32)s1` [Example 419], in experiment [2] (setting [3]), the Emax is 46.6%. For the same compound, in experiment [2] (setting [4]), the EC50 was found to be 71.9 nM. In the same order, the values of `CC(C)(C(=O)Nc1nncs1)[C@H]1c2ccccc2Oc2cc(OC(=O)NCc3ccco3)ccc21` [Example 372] are 52.4% and 28.3 nM. As to `CC(C)(C(=O)Nc1nncs1)C1c2ccccc2Oc2nc(-c3ccc(OCc4ccccc4)cc3)ccc21` (centres unmarked) [Example 202], in experiment [2] (Cellular Transrepression Assay), the EC50 was 219 nM and the “AP-1 Max % inh” value turned out to be 38.37%. The matching figures for `COc1ccc(-c2ccc3c(n2)Oc2ccccc2C3C(C)(C)C(=O)Nc2nncs2)cc1` (centres unmarked) [Example 169]: 92.7 nM and 48.82%.

Consider `CC(C)(C(=O)Nc1nncs1)[C@H]1c2ccccc2Oc2nc(-c3ccc(C(=O)N4CCC(F)(F)CC4)c(Cl)c3)ccc21` [Example 339], for which, in experiment [2] (setting [3]), the Emax amounted to 38.4%. Further, the EC50 in experiment [2] (setting [4]) stood at 185 nM. As for `CC(C)(C(=O)Nc1nncs1)[C@H]1c2ccccc2Oc2nc(-c3ccc(C(=O)N4CCOCC4)c(F)c3)ccc21` [Example 327], in experiment [2] (Cellular Transrepression Assay), the EC50 stood at 8.93 nM and the “AP-1 Max % inh” value stood at 59.45%. Turning to `CC(C)(C(=O)Nc1nccs1)C1c2ccccc2Oc2nc(N3CCOCC3)ccc21` (centres unmarked) [Example 154], the Emax in experiment [2] (setting [3]) was determined as 46.2%. In addition, in experiment [2] (setting [4]), the midpoint of the response, the EC50, lay at 236 nM. The matching figures for `CC(C)(C(=O)Nc1nnc(CF)s1)[C@H]1c2ccccc2Oc2nc(-c3ccc(C(=O)N4CCCC4)c(F)c3)ccc21` [Example 431]: 41.8% and 69 nM.

On to `CN(CCC#N)C(=O)c1ccc(-c2ccc3c(n2)Oc2ccccc2[C@@H]3C(C)(C)C(=O)Nc2nncs2)cc1` [Example 267], for which, in experiment [2] (Cellular Transrepression Assay), the response was half-maximal at 569 nM (EC50) and the “AP-1 Max % inh” value worked out at 40.78%.

With `Cc1nnc(NC(=O)C(C)(C)[C@H]2c3ccccc3Oc3nc(-c4ccc(C(=O)N(C)C)cc4)ccc32)s1` [Example 445], the Emax in experiment [2] (setting [3]) turned out to be 45.7%. In experiment [2] (setting [4]), this compound had an EC50 of 38.5 nM. On to `CC(C)(C(=O)Nc1nncs1)C1c2ccccc2Oc2nc(-c3ccc(Oc4ccccc4)cc3)ccc21` (centres unmarked) [Example 198], for which, in experiment [2] (Cellular Transrepression Assay), it took 22.2 nM to reach a half-maximal effect (EC50) and the “AP-1 Max % inh” value is recorded as 34.38%. In the same order, the values of `CCN(C)C(=O)c1ccc(-c2ccc3c(n2)Oc2ccccc2[C@@H]3C(C)(C)C(=O)Nc2nncs2)cc1Cl` [Example 345] are 124 nM and 54.25%. For the compound `CC(C)(C(=O)Nc1nc(-c2ccc(F)c3ccccc23)cs1)C1c2ccccc2Oc2nc(Cl)ccc21` (centres unmarked) [Example 73], in experiment [2] (setting [3]), the Emax was determined as 60.6%. Moreover, in experiment [2] (setting [4]), the response was half-maximal at 735 nM (EC50). In the same order, the values of `CC(C)(O)c1ccc(-c2ccc3c(n2)Oc2ccccc2[C@@H]3C(C)(C)C(=O)Nc2nncs2)cc1` [Example 404] are 70.6% and 22.5 nM.

Consider `CC(C)(C(=O)Nc1ncns1)[C@H]1c2ccccc2Oc2nc(-c3ccc(C(=O)N4CCOCC4)c(F)c3)ccc21` [Example 468], for which the Emax in experiment [2] (setting [3]) worked out at 53.3%. In experiment [2] (setting [4]), this compound showed a concentration for a half-maximal effect (EC50) of 35.4 nM.

Turning to `CC(C)(C(=O)Nc1nc(-c2ccc(F)c3ccccc23)cs1)C1c2ccccc2Oc2ccc(C(F)(F)F)cc21` (centres unmarked) [Example 40], in experiment [2] (setting [3]), the Emax was found to be 47.8%. Besides, in experiment [2] (setting [4]), the EC50 is 461 nM. In the same order, the values of `COc1ccc2c(c1)Oc1ccccc1C2C(C)(C)C(=O)Nc1nc(Cc2ccc(Br)cc2)cs1` (centres unmarked) [Example 50] are 74.8% and 165 nM.
